Laboratory results: patent publication US5891864A, “Anti-cancer compositions” (Han; Yung Bok, priority 1995, dated 1999)

What was measured:
[1] = test system: mouse lung cancer cells 3LL; assay: MTT in vitro test, cell survival rate of mouse lung cancer cell line 3LL; type: cell-based
Description: (§1) In vitro test for the effect of the composition (AG60) of the present invention on mouse lung cancer cells 3LL and human hepatoma cells SK-HEP-1
(§2) Cancer cells used for this test include human hepatoma cell line SK-HEP-1 and mouse lung cancer cell line 3LL, as recommended by the U.S. NCI(National Cancer Institute).
(§3) These cell lines were incubated in the culture media prepared by adding 10% inactivated FBS(fetal bovine serum), 100 μg/ml of streptomycin and 100 units/ml of penicillin to RPMI 1640 medium, at 37° C. in an incubator(Heraus) under 5% CO2 and 100% humidity. […] After 2 days, the survival rate of cells was calculated by carrying out MTT method using determination of dehydrogenase enzyme in cellular mitochondria and measuring the absorbance at 540 nm by means of a spectrophotometer (ELISA reader), to determine the anti-cancer activity of the composition according to the present invention against respective cancer cells. MTT test is a method in which formazan precipitate formed by reduction of MTT with cellular mitochondria dehydrogenase in living cells is dissolved and then the absorbance is measured. Thus, since in vigorously dividing cancer cells the enzyme is fully active, by the action of enzyme MTT is reduced to form the precipitate which can be dissolved to determine the absorbance, thereby identifying the survival rate of respective cells. […]

[2] = test system: human hepatoma cells SK-HEP-1; assay: MTT in vitro test, cell survival rate of human hepatoma cell line SK-HEP-1; type: cell-based
Description: as §1, §2, §3

[3] = test system: Ehrlich solid tumor; assay: Comparative test for inhibition of Ehrlich solid tumor proliferation; type: in vivo, mouse; conditions: An 15, Gh 15, AG60 30 mg/kg; for size of cancer tissue (solid tumor proliferation): i.m. once a day
Description: Comparative test for inhibition of Ehrlich solid tumor proliferation with acriflavine neutral(An), guanosine hydrate(Gh) and the composition(AG60) of the present invention
Normal 20 ICR mice(.male., 20±1 g) were divided into 4 groups such that each group included 5 mice. Ehrlich cancer cells were transplanted into the inguinal area of all experimental animals in an amount of 1×10^7 cells per animal. After 24 hours, the control group A received physiological saline in an amount of 10 ml/kg by intramuscular injection, once a day, for 15 days. As the comparative groups, the groups B and C received acriflavine neutral(An) in an amount of 15 mg/kg and guanosine hydrate(Gh) in an amount of 15 mg/kg, respectively, in the same manner as the control group. To the group D the composition (AG60) of the present invention was administered in an amount of 30 mg/kg in the same manner as the control group. During 15 days after the transplantation of cancer cells the proliferation of solid tumor in each group was observed.
The effects on the solid tumor proliferation of the composition(AG60) of the present invention, acriflavine neutral(An) and guanosine hydrate(Gh) were determined by measuring the size of cancer tissues in control group A, the acriflavine neutral group B, the guanosine hydrate group C and the present composition(AG60) group D from the fifth day to the fifteenth day after the transplantation of cancer cells at an interval of 2 days, and are presented in Table 3 and FIG. 5. […] In group D to which the composition(AG60) of the present invention was administered, the size of cancer tissue was measured as 1.5 mm after 5 days from transplantation and, thereafter, increased 0.35 mm every 2 days.

[4] = cold / warm water; cited from earlier work

Row | Structure (SMILES) | cytotoxicity / anti-cancer activity in words ([1]; 3LL cells) | IC50 ([1]; Mus musculus, 3LL, 48 h, read-out: ID value (survival rate of cells)) [µg/mL] | IC50 ([2]; Homo sapiens, SK-HEP1, 48 h, read-out: ID value (survival rate of cells)) [µg/mL] | cytotoxicity / anti-cancer activity in words ([2]; SK-HEP-1 cells) | size of cancer tissue (solid tumor proliferation) ([3]; day 5) [mm] | size of cancer tissue (solid tumor proliferation) ([3]; day 7) [mm] | size of cancer tissue (solid tumor proliferation) ([3]; day 9) [mm] | size of cancer tissue (solid tumor proliferation) ([3]; day 11) [mm] | size of cancer tissue (solid tumor proliferation) ([3]; day 13) [mm] | size of cancer tissue (solid tumor proliferation) ([3]; day 15) [mm] | inhibition of solid tumor proliferation in words ([3]; i.m. once a day for 15 days) | solubility in water [4]
1 | Nc1nc2c(ncn2[C@@H]2O[C@H](CO)[C@@H](O)[C@H]2O)c(=O)[nH]1.O [Guanosine hydrate] | did not show any anti-cancer activity | 1520 | 1530 | did not show any anti-cancer activity | 4.7 | 6.8 | 8.5 | 12.3 | 14.5 | 18.2 | showed the similar proliferation pattern to each other | 
2 | Nc1nc2c(ncn2[C@@H]2O[C@H](CO)[C@@H](O)[C@H]2O)c(=O)[nH]1 [Guanosine, 2-amino-9-β-D-ribofuranosyl-9H-purin-6-(1H)-one] |  |  |  |  |  |  |  |  |  |  |  | slighly soluble in cold water but soluble in warm water
